From patent US12018021B2 (UCB Biopharma SRL, priority 2018, dated 2024) come the findings set out here.

Each structure is given as a SMILES string. pIC50: −log10 of the molar value.

This test deals with IgE-Tb / FcεRIα-Y131A-AF488 (Homo sapiens, UniProt P01854). In words: IgE-Tb / FcεRIα-Y131A-AF488 FRET assay (protocol for examples 1 to 233). It counts as binding. As to conditions: examples 1 to 233: 5 nM IgE-Tb, 25 nM FcεRIα-Y131A-AF488, incubated 2 hours at room temperature; read-out: Y131A FRET IC50 range. In outline: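 TR-FRET displacement with 5 nM IgE-Tb and 25 nM FcεRIα-Y131A-AF488 (final), 10-point 3-fold compound dilutions from typically 10 μM top, 2% DMSO, 2 h at room temperature. Excitation 330 nm, 520/495 nm emission ratio; MIN set with 200 nM unlabelled FcεRIα. IC50 from four-parameter logistic fit of percent inhibition.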
Chain of IgE-Tb / FcεRIα-Y131A-AF488 (P01854 1-427 limits assumed, stated change not applied): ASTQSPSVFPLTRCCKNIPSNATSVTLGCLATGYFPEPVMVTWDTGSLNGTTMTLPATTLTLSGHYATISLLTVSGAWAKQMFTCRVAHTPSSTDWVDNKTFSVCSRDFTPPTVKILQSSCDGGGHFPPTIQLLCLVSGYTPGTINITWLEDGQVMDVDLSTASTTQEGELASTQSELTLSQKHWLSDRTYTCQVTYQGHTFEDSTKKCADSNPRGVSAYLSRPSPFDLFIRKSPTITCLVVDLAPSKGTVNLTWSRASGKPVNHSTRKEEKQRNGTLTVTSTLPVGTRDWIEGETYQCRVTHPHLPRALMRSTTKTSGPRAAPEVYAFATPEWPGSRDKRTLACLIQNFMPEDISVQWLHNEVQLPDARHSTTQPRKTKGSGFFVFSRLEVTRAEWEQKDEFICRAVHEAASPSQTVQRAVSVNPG
For orientation: pIC50 means the negative decadic logarithm of the IC50, by convention in mol/L. Turning to `Cc1cc(Nc2nncn2[C@@H]2CCc3sc(NC(=O)C4CC4)c(C(=O)NCC4CC4)c3C2)n(C)n1` [Example 162, (5R)-2-(Cyclopropanecarbonylamino)-N-(cyclopropylmethyl)-5-[3-[(2,5-dimethylpyrazol-3-yl)amino]-1,2,4-triazol-4-yl]-4,5,6,7-tetrahydrobenzothiophene-3-carboxamide], the pIC50 was more than 6.00. For the compound `Cn1cc(-n2cnnc2N[C@H]2CCc3sc(NC(=O)C4CC4)c(C(=O)NCC4CC4)c3C2)cn1` [Example 163, (5S)-2-(Cyclopropanecarbonylamino)-N-(cyclopropylmethyl)-5-[[4-(1-methylpyrazol-4-yl)-1,2,4-triazol-3-yl]amino]-4,5,6,7-tetrahydrobenzothiophene-3-carboxamide], the negative-log IC50 (pIC50) is 5.00 to 6.00.

For the compound `CCOC(=O)c1cn([C@H]2CCc3sc(NC(=O)C4CC4)c(C(=O)NCC4CC4)c3C2)cn1` [Example 164, ethyl 1-[(5S)-2-cyclopropaneamido-3-[(cyclopropylmethyl)carbamoyl]-4,5,6,7-tetrahydro-1-benzothiophen-5-yl]-1H-imidazole-4-carboxylate], the pIC50 was more than 6.00. With `O=C(NCC1CC1)c1c(NC(=O)C2CC2)sc2c1CC(Nc1nncn1-c1ccc(F)cc1)CC2` (stereo not drawn) [Example 165, 2-(Cyclopropanecarbonylamino)-N-(cyclopropylmethyl)-5-[[4-(4-fluorophenyl)-1,2,4-triazol-3-yl]amino]-4,5,6,7-tetrahydrobenzothiophene-3-carboxamide] the figure was more than 6.00.

Take `O=C(NCC1CC1)c1c(NC(=O)C2CC2)sc2c1C[C@@H](Nc1ncc[nH]1)CC2` [Example 166, (5S)-2-(Cyclopropanecarbonylamino)-N-(cyclopropylmethyl)-5-(1H-imidazol-2-ylamino)-4,5,6,7-tetrahydrobenzothiophene-3-carboxamide]: the pIC50 is more than 6.00. With `Cc1cc(Nc2nncn2C2CCc3sc(NC(=O)C4CC4)c(S(=O)(=O)NCC(C)C)c3C2)n(C)n1` (stereo not drawn) [Example 167] the figure was more than 6.00; with `CON=C(Nc1ccc(C)cc1)NC1CCc2sc(NC(=O)C3CC3)c(C(=O)NCC3CC3)c2C1` (stereo not drawn) [Example 168, 2-(Cyclopropanecarbonylamino)-N-(cyclopropylmethyl)-5-[[N′-methoxy-N-(p-tolyl)carbamimidoyl]amino]-4,5,6,7-tetrahydrobenzothiophene-3-carboxamide], more than 6.00; with `Cc1ccc(NC2=NS(=O)(=O)N=C2NC2CCc3sc(NC(=O)C4CC4)c(C(=O)NCC4CC4)c3C2)cc1` (stereo not drawn) [Example 169, 2-(Cyclopropanecarbonylamino)-N-(cyclopropylmethyl)-5-[[4-(4-methylanilino)-1,1-dioxo-1,2,5-thiadiazol-3-yl]amino]-4,5,6,7-tetrahydrobenzothiophene-3-carboxamide], more than 6.00.

Take `O=C(NCC1CC1)c1c(NC(=O)C2CC2)sc2c1C[C@@H](Nc1nccn1-c1cccnc1)CC2` [Example 170, (5S)-2-(Cyclopropanecarbonylamino)-N-(cyclopropylmethyl)-5-[[1-(3-pyridyl)imidazol-2-yl]amino]-4,5,6,7-tetrahydrobenzothiophene-3-carboxamide]: the pIC50 is 5.00 to 6.00. For `Nc1cnnn1C1CCc2sc(NC(=O)C3CC3)c(C(=O)NCC3CC3)c2C1` (stereo not drawn) [Example 171, 5-(5-Aminotriazol-1-yl)-2-(cyclopropanecarbonylamino)-N-(cyclopropylmethyl)-4,5,6,7-tetrahydrobenzothiophene-3-carboxamide], the pIC50 is more than 6.00. The result for `COc1ccccc1NC(=O)NC1CCc2sc(NC(=O)C3CC3)c(C(=O)NCC3CC3)c2C1` (stereo not drawn) [Example 172, 2-(Cyclopropanecarbonylamino)-N-(cyclopropylmethyl)-5-[(2-methoxyphenyl)carbamoylamino]-4,5,6,7-tetrahydrobenzothiophene-3-carboxamide] reads more than 6.00.

For the compound `O=C(NC1CCc2sc(NC(=O)C3CC3)c(C(=O)NCC3CC3)c2C1)c1ccncc1` (stereo not drawn) [Example 173, N-[2-(Cyclopropanecarbonylamino)-3-(cyclopropylmethylcarbamoyl)-4,5,6,7-tetrahydrobenzothiophen-5-yl]pyridine-4-carboxamide], the pIC50 was 5.00 to 6.00. With `O=C(NCC1CC1)c1c(NC(=O)C2CC2)sc2c1CC(NCc1ccccc1)CC2` (stereo not drawn) [Example 174, 5-(Benzylamino)-2-(cyclopropanecarbonylamino)-N-(cyclopropylmethyl)-4,5,6,7-tetrahydrobenzothiophene-3-carboxamide] the figure was 4.30 to 5.00; with `O=C(NCC1CC1)c1c(NC(=O)C2CC2)sc2c1CC(Nc1nc3ccccc3[nH]1)CC2` (stereo not drawn) [Example 175, 5-(1H-Benzimidazol-2-ylamino)-2-(cyclopropanecarbonylamino)-N-(cyclopropylmethyl)-4,5,6,7-tetrahydrobenzothiophene-3-carboxamide], more than 6.00; with `NC(=NO)NC1CCc2sc(NC(=O)C3CC3)c(C(=O)NCC3CC3)c2C1` (stereo not drawn) [Example 176, 2-(Cyclopropanecarbonylamino)-N-(cyclopropylmethyl)-5-[[N′-hydroxycarbamimidoyl]amino]-4,5,6,7-tetrahydrobenzothiophene-3-carboxamide], more than 6.00. For `Cc1ccc(NC(=Nc2ccn(C)n2)NC2CCc3sc(NC(=O)C4CC4)c(C(=O)NCC4CC4)c3C2)cc1` (stereo not drawn) [Example 177, 2-(Cyclopropanecarbonylamino)-N-(cyclopropylmethyl)-5-[[N′-(1-methylpyrazol-3-yl)-N-(p-tolyl)carbamimidoyl]amino]-4,5,6,7-tetrahydrobenzothiophene-3-carboxamide; formic acid], the pIC50 is 5.00 to 6.00. With `CCNc1nnc(COC)n1C1CCc2sc(NC(=O)C3CC3)c(C(=O)NCC3CC3)c2C1` (stereo not drawn) [Example 179, 2-(Cyclopropanecarbonylamino)-N-(cyclopropylmethyl)-5-[3-(ethylamino)-5-(methoxymethyl)-1,2,4-triazol-4-yl]-4,5,6,7-tetrahydrobenzothiophene-3-carboxamide] the figure was 5.00 to 6.00; with `O=C(NCC1CC1)c1c(NC(=O)C2CC2)sc2c1CC(Nc1n[nH]c(-c3cccnc3)n1)CC2` (stereo not drawn) [Example 180, 2-(Cyclopropanecarbonylamino)-N-(cyclopropylmethyl)-5-[[5-(3-pyridyl)-1H-1,2,4-triazol-3-yl]amino]-4,5,6,7-tetrahydrobenzothiophene-3-carboxamide], more than 6.00; with `Cc1ccc(OC(=O)NC2CCc3sc(NC(=O)C4CC4)c(C(=O)NCC4CC4)c3C2)cc1` (stereo not drawn) [Example 181, p-Tolyl N-[2-(cyclopropanecarbonylamino)-3-(cyclopropylmethylcarbamoyl)-4,5,6,7-tetrahydrobenzothiophen-5-yl]carbamate], more than 6.00.

Take `O=C(NCC1CC1)c1c(NC(=O)C2CC2)sc2c1CC(Nc1ncc3ccccc3n1)CC2` (stereo not drawn) [Example 182, 2-(Cyclopropanecarbonylamino)-N-(cyclopropylmethyl)-5-(quinazolin-2-ylamino)-4,5,6,7-tetrahydrobenzothiophene-3-carboxamide]: the pIC50 is more than 6.00.

With `O=C(NCC1CC1)c1c(NC(=O)C2CC2)sc2c1CC(Nc1nc3ccccc3o1)CC2` (stereo not drawn) [Example 183, 5-(1,3-Benzoxazol-2-ylamino)-2-(cyclopropanecarbonylamino)-N-(cyclopropylmethyl)-4,5,6,7-tetrahydrobenzothiophene-3-carboxamide], the pIC50 was more than 6.00.
